Reference: patent US12239645B2, “Targeted dosing for the treatment of complement mediated disorders” (Achillion Pharmaceuticals, Inc., priority 2018, dated 2025)
Where two headings read alike, the source gives them in different places.

Assay: Multiple ascending dose (MAD) study: multiple-dose pharmacokinetics
Format: in vivo, human
Details: for concentration at 120 h: Day 6, 0 hr post-dose (120 h); for concentration at 120 h / concentration at 132 h / concentration at 144 h / concentration at 156 h / concentration at 168 h / concentration at 192 h / concentration at 288 h / concentration at 300 h / concentration at 312 h / concentration at 324 h: read-out: Pre-dose (trough) plasma concentration, Mean; for concentration at 132 h: Day 6, 12 hr post-dose (132 h); for concentration at 144 h: Day 7, 0 hr post-dose (144 h); for concentration at 156 h: Day 7, 12 hr post-dose (156 h); for concentration at 168 h: Day 8, 0 hr post-dose (168 h); for concentration at 192 h: Day 9, 0 hr post-dose (192 h); for concentration at 288 h: Day 13, 0 hr post-dose (288 h); for concentration at 300 h: Day 13, 12 hr post-dose (300 h); for concentration at 312 h: Day 14, 0 hr post-dose (312 h); for concentration at 324 h: Day 14, 12 hr post-dose (324 h); for concentration at 12 h / concentration at 12 hr: all 12 hr (evening) troughs, read-out: Mean C(12), steady-state trough
Experimental: A multiple ascending dose (MAD) study of Compound 1 with two additional single-dose cohorts was also completed. […] Secondary objectives included evaluation of the pharmacokinetic (PK) profile and the relationship between Compound 1 PK and pharmacodynamic (PD) characteristics, that is, the inhibition of complement alternative pathway (AP) activity (PK/PD). In the MAD study, multiple-dose pharmacokinetics and pharmacodynamics of Compound 1 were evaluated in four dose groups administered Compound 1 (40, 80, 120 and 200 mg BID) in the fasted state for 14-days (Table 3). Eight subjects received active drug in each group; eight subjects received placebo in the first dose group (40 mg) and two subjects received placebo in each of the other three dose groups. Two additional cohorts were administered Compound 1 at single doses of 240 mg (fasted subjects) and 120 mg (fed subjects) (Table 3). The two single-dose cohorts each comprised six subjects receiving active drug and two subjects receiving placebo. Plasma and serum samples for PK and PD assessment were collected on selected days prior to dosing (at local troughs), and on days 1, 7, and 14 at 0.5-hour to 2-hour intervals for more detailed assessment.

[1] = human, plasma, oral, 80 mg, 80 mg BID
[2] = human, plasma, oral, 120 mg, 120 mg BID
[3] = human, plasma, oral, 200 mg, 200 mg BID

For `CC(=O)c1nn(CC(=O)N2[C@H](C(=O)Nc3nc(Br)ccc3C)C[C@@]3(C)C[C@@H]23)c2ccc(-c3cnc(C)nc3)cc12` [Compound 1, (1R,3S,5R)-2-(2-(3-acetyl-5-(2-methylpyrimidin-5-yl)-1H-indazol-1-yl)acetyl)-N-(6-bromo-3-methylpyridin-2-yl)-5-methyl-2-azabicyclo[3.1.0]hexane-3-carboxamide], the “Mean pre-dose concentrations at steady-state, range” value (shortened to “Mean pre-dose concentrations”) (40 mg BID) was 15.6 to 23.5 ng/mL, the “Mean pre-dose concentrations” value (80 mg BID) was 45.9 to 83.7 ng/mL and the “Mean pre-dose concentrations” value (120 mg BID) was 80.6 to 153 ng/mL. For the same compound, the “Mean pre-dose concentrations” value (200 mg BID) was 247 to 392 ng/mL, the concentration at 120 h (human, plasma, oral, 40 mg BID) was 27.8 ng/mL and the concentration at 132 h (human, plasma, oral, 40 mg BID) was 17.9 ng/mL. For the same compound, the concentration at 144 h (human, plasma, oral, 40 mg BID) was 24.3 ng/mL, the concentration at 156 h (human, plasma, oral, 40 mg BID) was 15.7 ng/mL and the concentration at 168 h (human, plasma, oral, 40 mg BID) was 27.8 ng/mL. For the same compound, the concentration at 192 h (human, plasma, oral, 40 mg BID) was 26.9 ng/mL, the concentration at 288 h (human, plasma, oral, 40 mg BID) was 23.5 ng/mL and the concentration at 300 h (human, plasma, oral, 40 mg BID) was 15.3 ng/mL. For the same compound, the concentration at 312 h (human, plasma, oral, 40 mg BID) was 25.2 ng/mL, the concentration at 324 h (human, plasma, oral, 40 mg BID) was 16.2 ng/mL and the concentration at 12 h (human, plasma, oral, 40 mg BID) was 15.6 ng/mL. The Tmax (human, plasma, oral, 40 mg, 40 mg BID × 14 Days, Day 1) was 1.56 h, the AUC(0-t) (human, plasma, oral, 40 mg, 40 mg BID × 14 Days, Day 1, read-out: AUC(0-12), Mean) was 392 ng·h/mL and the Cmax (human, plasma, oral, 40 mg, 40 mg BID × 14 Days, Day 1, read-out: Cmax, Mean) was 107 ng/mL. For the same compound, the Tmax (human, plasma, oral, 40 mg, 40 mg BID × 14 Days, Day 7) was 1.8 h, the AUC(0-t) (human, plasma, oral, 40 mg, 40 mg BID × 14 Days, Day 7, read-out: AUC(0-12), Mean) was 741 ng·h/mL and the AUC(0-t) (human, plasma, oral, 40 mg, 40 mg BID × 14 Days, Day 7, read-out: AUC(0-24), Mean) was 1480 ng·h/mL. The Cmax (human, plasma, oral, 40 mg, 40 mg BID × 14 Days, Day 7, read-out: Cmax, Mean) was 169 ng/mL, the Tmax (human, plasma, oral, 40 mg, 40 mg BID × 14 Days, Day 14) was 1.58 h and the AUC(0-t) (human, plasma, oral, 40 mg, 40 mg BID × 14 Days, Day 14, read-out: AUC(0-12), Mean) was 732 ng·h/mL. For the same compound, the AUC(0-t) (human, plasma, oral, 40 mg, 40 mg BID × 14 Days, Day 14, read-out: AUC(0-24), Mean) was 1460 ng·h/mL, the Cmax (human, plasma, oral, 40 mg, 40 mg BID × 14 Days, Day 14, read-out: Cmax, Mean) was 156 ng/mL and the concentration at 156 h (human, plasma, oral, 80 mg BID) was 43.7 ng/mL. For the same compound, the concentration at 168 h (human, plasma, oral, 80 mg BID) was 109 ng/mL, the concentration at 192 h (human, plasma, oral, 80 mg BID) was 102 ng/mL and the concentration at 288 h (human, plasma, oral, 80 mg BID) was 63.3 ng/mL. For the same compound, the concentration at 300 h (human, plasma, oral, 80 mg BID) was 45.2 ng/mL, the concentration at 312 h (human, plasma, oral, 80 mg BID) was 85 ng/mL and the Tmax (human, plasma, oral, 80 mg, 80 mg BID × 14 Days, Day 1) was 1.79 h. It also gave an AUC(0-t) (human, plasma, oral, 80 mg, 80 mg BID × 14 Days, Day 1, read-out: AUC(0-12), Mean) of 856 ng·h/mL, a Cmax (human, plasma, oral, 80 mg, 80 mg BID × 14 Days, Day 1, read-out: Cmax, Mean) of 207 ng/mL and a Tmax (human, plasma, oral, 80 mg, 80 mg BID × 14 Days, Day 7) of 2 h. It also gave an AUC(0-t) (human, plasma, oral, 80 mg, 80 mg BID × 14 Days, Day 7, read-out: AUC(0-12), Mean) of 1990 ng·h/mL, an AUC(0-t) (human, plasma, oral, 80 mg, 80 mg BID × 14 Days, Day 7, read-out: AUC(0-24), Mean) of 3990 ng·h/mL and a Cmax (human, plasma, oral, 80 mg, 80 mg BID × 14 Days, Day 7, read-out: Cmax, Mean) of 472 ng/mL. The Tmax (human, plasma, oral, 80 mg, 80 mg BID × 14 Days, Day 14) was 2.14 h, the AUC(0-t) (human, plasma, oral, 80 mg, 80 mg BID × 14 Days, Day 14, read-out: AUC(0-12), Mean) was 1980 ng·h/mL and the AUC(0-t) (human, plasma, oral, 80 mg, 80 mg BID × 14 Days, Day 14, read-out: AUC(0-24), Mean) was 3970 ng·h/mL. The Cmax (human, plasma, oral, 80 mg, 80 mg BID × 14 Days, Day 14, read-out: Cmax, Mean) was 453 ng/mL, the concentration at 120 h [1] was 73.8 ng/mL and the concentration at 132 h [1] was 52.1 ng/mL. The concentration at 144 h [1] was 69.1 ng/mL, the concentration at 324 h [1] was 42.5 ng/mL and the concentration at 12 hr [1] was 45.9 ng/mL. The concentration at 12 h (human, plasma, oral, 120 mg BID) was roughly 80 ng/mL, the Tmax (human, plasma, oral, 120 mg, 120 mg BID × 14 Days, Day 1) was 2 h and the AUC(0-t) (human, plasma, oral, 120 mg, 120 mg BID × 14 Days, Day 1, read-out: AUC(0-12), Mean) was 1200 ng·h/mL. For the same compound, the Cmax (human, plasma, oral, 120 mg, 120 mg BID × 14 Days, Day 1, read-out: Cmax, Mean) was 353 ng/mL, the Tmax (human, plasma, oral, 120 mg, 120 mg BID × 14 Days, Day 7) was 1.75 h and the AUC(0-t) (human, plasma, oral, 120 mg, 120 mg BID × 14 Days, Day 7, read-out: AUC(0-12), Mean) was 3880 ng·h/mL. For the same compound, the AUC(0-t) (human, plasma, oral, 120 mg, 120 mg BID × 14 Days, Day 7, read-out: AUC(0-24), Mean) was 7750 ng·h/mL, the Cmax (human, plasma, oral, 120 mg, 120 mg BID × 14 Days, Day 7, read-out: Cmax, Mean) was 885 ng/mL and the Tmax (human, plasma, oral, 120 mg, 120 mg BID × 14 Days, Day 14) was 2.5 h. It also gave an AUC(0-t) (human, plasma, oral, 120 mg, 120 mg BID × 14 Days, Day 14, read-out: AUC(0-12), Mean) of 3990 ng·h/mL, an AUC(0-t) (human, plasma, oral, 120 mg, 120 mg BID × 14 Days, Day 14, read-out: AUC(0-24), Mean) of 7990 ng·h/mL and a Cmax (human, plasma, oral, 120 mg, 120 mg BID × 14 Days, Day 14, read-out: Cmax, Mean) of 887 ng/mL. It also gave a concentration at 120 h [2] of 165 ng/mL, a concentration at 132 h [2] of 90.6 ng/mL and a concentration at 144 h [2] of 125 ng/mL. The concentration at 156 h [2] was 67.2 ng/mL, the concentration at 168 h [2] was 164 ng/mL and the concentration at 192 h [2] was 156 ng/mL. For the same compound, the concentration at 288 h [2] was 136 ng/mL, the concentration at 300 h [2] was 88 ng/mL and the concentration at 312 h [2] was 173 ng/mL. For the same compound, the concentration at 324 h [2] was 76.6 ng/mL, the Cmax (human, plasma, oral, 120 mg, 120 mg BID, read-out: Cmax) was less than 1000 ng/mL and the Tmax (human, plasma, oral, 200 mg, 200 mg BID × 14 Days, Day 1) was 1.63 h. It also gave an AUC(0-t) (human, plasma, oral, 200 mg, 200 mg BID × 14 Days, Day 1, read-out: AUC(0-12), Mean) of 1820 ng·h/mL, a Cmax (human, plasma, oral, 200 mg, 200 mg BID × 14 Days, Day 1, read-out: Cmax, Mean) of 440 ng/mL and a Tmax (human, plasma, oral, 200 mg, 200 mg BID × 14 Days, Day 7) of 2.06 h. It also gave an AUC(0-t) (human, plasma, oral, 200 mg, 200 mg BID × 14 Days, Day 7, read-out: AUC(0-12), Mean) of 9350 ng·h/mL, an AUC(0-t) (human, plasma, oral, 200 mg, 200 mg BID × 14 Days, Day 7, read-out: AUC(0-24), Mean) of 18700 ng·h/mL and a Cmax (human, plasma, oral, 200 mg, 200 mg BID × 14 Days, Day 7, read-out: Cmax, Mean) of 1870 ng/mL. For the same compound, the Tmax (human, plasma, oral, 200 mg, 200 mg BID × 14 Days, Day 14) was 1.81 h, the AUC(0-t) (human, plasma, oral, 200 mg, 200 mg BID × 14 Days, Day 14, read-out: AUC(0-12), Mean) was 8240 ng·h/mL and the AUC(0-t) (human, plasma, oral, 200 mg, 200 mg BID × 14 Days, Day 14, read-out: AUC(0-24), Mean) was 16500 ng·h/mL. It also gave a Cmax (human, plasma, oral, 200 mg, 200 mg BID × 14 Days, Day 14, read-out: Cmax, Mean) of 1630 ng/mL, a concentration at 120 h [3] of 431 ng/mL and a concentration at 132 h [3] of 241 ng/mL. For the same compound, the concentration at 144 h [3] was 385 ng/mL, the concentration at 156 h [3] was 241 ng/mL and the concentration at 168 h [3] was 381 ng/mL. The concentration at 192 h [3] was 377 ng/mL, the concentration at 288 h [3] was 376 ng/mL and the concentration at 300 h [3] was 272 ng/mL. The concentration at 312 h [3] was 415 ng/mL, the concentration at 324 h [3] was 235 ng/mL and the concentration at 12 hr [3] was 247 ng/mL. For the same compound, the Cmax (human, plasma, oral, 200 mg, 200 mg BID, read-out: Cmax) was less than 2000 ng/mL, the C0 at 0 h (human, plasma, oral, 40 mg BID, all 0 hr (morning) troughs, read-out: Mean C(0), steady-state trough) was 23.4 ng/mL and the C0 at 0 hr (human, plasma, oral, 80 mg BID, all 0 hr (morning) troughs, read-out: Mean C(0), steady-state trough) was 83.7 ng/mL. The C0 at 0 hr (human, plasma, oral, 120 mg BID, all 0 hr (morning) troughs, read-out: Mean C(0), steady-state trough) was 153 ng/mL, the C0 at 0 hr (human, plasma, oral, 200 mg BID, all 0 hr (morning) troughs, read-out: Mean C(0), steady-state trough) was 392 ng/mL and the diurnal metabolic pattern (humans, BID dosing, C(0) morning vs C(12) evening) was “exhibits a diurnal metabolic pattern”.
